Measurements published in patent US7098218B2, “Steroidal compounds for inhibiting steroid sulphatase” (priority 2001, dated 2006).
“And” between values parts separate entries of the source, which are not always exact repeats. Equal values may be shown once.

Experiments:
[1] = molecular target: T1, E2DH Type I (HSD Type I) in T47D breast cancer cells (Homo sapiens, UniProt P14061); assay: Conversion of oestrone to oestradiol in intact T47D cell monolayers (Protocol 7); type: cell-based; conditions: measured at 10 μM; for inhibition at 10 µM: T47D, read-out: % Inhibition E1 → E2 ± SD (HSD Type I)
T1 construct: T47D breast cancer cells in which E2HSD Type I activity is abundant; endogenous in cells; host or cells: T47D breast cancer cells
T1 sequence (P14061 2-328 limits assumed): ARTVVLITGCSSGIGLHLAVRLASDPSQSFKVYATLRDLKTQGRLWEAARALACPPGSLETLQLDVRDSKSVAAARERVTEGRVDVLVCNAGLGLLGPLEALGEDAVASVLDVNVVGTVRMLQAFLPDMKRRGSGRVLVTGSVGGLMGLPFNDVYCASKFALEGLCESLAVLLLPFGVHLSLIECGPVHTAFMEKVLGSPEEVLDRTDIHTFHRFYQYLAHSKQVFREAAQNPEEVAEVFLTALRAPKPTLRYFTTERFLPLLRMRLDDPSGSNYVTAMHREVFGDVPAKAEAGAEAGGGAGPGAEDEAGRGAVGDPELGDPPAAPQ
Procedure: (§1) The ability of compounds to inhibit steroid dehydrogenase activity can be assessed using either T47D breast cancer cells in which E2HSD Type I activity is abundant or MDA-MB-231 cells for Type II inhibitor studies. In both cell lines formation of products is linear with respect to time and cell numbers. Details on a suitable Assay Protocol are presented in the Examples section.
(§2) Conversion of oestrone to oestradiol (E1→E2, E2DH Type I) and oestradiol to oestrone (E2→E1, E2DH Type II) was measured in intact cell monolayers of T47D and MDA-MB231 breast cancer cells respectively. Cells were cultured in flasks until they were 80–90% confluent. ^3 H-E1 or ^3H-E2 (6 pmol, ˜90 Ci/mmol) were added to each flask in the absence (control) or presence of various test compounds (10 μM) in 2.5 ml of medium. Substrate was also added to flasks without cells and incubated in parallel (blanks).
(§3) After incubation with T47D cells for 30 min or MDA cells for 3 h at 37° C., 2 ml of the medium was added to test tubes containing ^14C-E2 or ^14C-E1 (˜5000 cpm) and 50 μg E2 or E1 respectively. Steroids were extracted from the aqueous medium with diethyl ether (4 ml). The ether phase was decanted into separate tubes after freezing the aqueous phase in solid carbon dioxide-methanol mixture. The ether was evaporated to dryness under a stream of air at 40° C. The residue was dissolved in a small volume of diethyl ether and applied to TLC plates containing a fluorescent indicator. E1 and E2 were separated by TLC using DCM-Ethyl acetate (4:1 v/v). The position of the product from each incubation flask was marked on the TLC plate after visualisation under UV light. The marked regions were cut out and placed in scintillation vials containing methanol (0.5 ml) to elute the product. The amount of ^3 H-product formed and ^14C-E1 or ^14C-E2 recovered were calculated after scintillation spectrometry. The amount of product formed was corrected for procedural losses and for the number of cells in each flask.

[2] = molecular target: T2, E2DH Type II (HSD Type II) in MDA-MB231 breast cancer cells (Homo sapiens, UniProt P37059); assay: Conversion of oestradiol to oestrone in intact MDA-MB231 cell monolayers (Protocol 7); type: cell-based; conditions: MDA-MB-231, measured at 10 μM, read-out: % Inhibition E2 → E1 ± SD (HSD Type II)
T2 construct: endogenous in cells; host or cells: MDA-MB-231 breast cancer cells
T2 sequence (P37059 1-387): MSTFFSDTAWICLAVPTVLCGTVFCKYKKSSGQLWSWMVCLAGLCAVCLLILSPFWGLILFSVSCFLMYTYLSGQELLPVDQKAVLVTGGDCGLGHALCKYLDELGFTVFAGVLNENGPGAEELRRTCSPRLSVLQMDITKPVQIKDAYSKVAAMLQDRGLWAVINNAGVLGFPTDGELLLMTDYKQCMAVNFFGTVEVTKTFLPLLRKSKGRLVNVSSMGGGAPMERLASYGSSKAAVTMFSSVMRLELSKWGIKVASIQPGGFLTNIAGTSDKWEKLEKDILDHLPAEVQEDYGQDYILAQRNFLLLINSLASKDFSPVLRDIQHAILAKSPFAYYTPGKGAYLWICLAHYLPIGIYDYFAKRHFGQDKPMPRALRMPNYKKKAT
Procedure: as §1, §2, §3

[3] = molecular target: T3, STS (Homo sapiens, UniProt P08842); assay: biochemical; conditions: STS IC50 (nM), inhibition of E1S→E1; Table 1
T3 construct: can be assessed using either intact MCF-7 breast cancer cells or placental microsomes
T3 sequence (P08842 22-583): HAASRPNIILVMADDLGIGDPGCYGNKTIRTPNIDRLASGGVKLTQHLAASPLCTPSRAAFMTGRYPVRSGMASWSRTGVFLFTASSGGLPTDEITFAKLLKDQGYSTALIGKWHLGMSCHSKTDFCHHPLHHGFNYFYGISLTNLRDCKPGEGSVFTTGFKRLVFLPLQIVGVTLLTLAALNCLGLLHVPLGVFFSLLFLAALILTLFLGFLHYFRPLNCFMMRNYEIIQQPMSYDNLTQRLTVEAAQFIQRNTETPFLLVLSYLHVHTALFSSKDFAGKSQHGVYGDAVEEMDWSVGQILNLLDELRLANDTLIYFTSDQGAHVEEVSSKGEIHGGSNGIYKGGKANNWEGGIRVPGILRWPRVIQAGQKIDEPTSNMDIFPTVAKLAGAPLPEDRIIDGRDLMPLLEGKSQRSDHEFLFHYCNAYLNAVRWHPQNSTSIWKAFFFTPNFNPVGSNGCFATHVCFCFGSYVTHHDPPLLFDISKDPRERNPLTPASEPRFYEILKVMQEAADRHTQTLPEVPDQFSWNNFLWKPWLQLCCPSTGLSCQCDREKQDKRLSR

Compound: C[C@]12CCC3c4ccc(O)cc4CCC3C1CC(=O)N(Cc1ccccc1)C2=O (stereo partly drawn) [compound 233]
- inhibition at 10 µM [1]: 58.8 ± 0.68%
- % Inhibition E1 → E2 ± SD (HSD Type I) ([1]; 10 µM): 57.43 ± 1.89%
- inhibition at 10 µM [2]: 35.8 ± 3.88%

Compound: C[C@]12CCC3c4ccc(O)cc4CCC3C1CC(=O)N(Cc1cccnc1)C2=O (stereo partly drawn) [compound 234]
- inhibition at 10 µM [1]: 25.8 ± 9.27%
- inhibition at 10 µM [2]: -1.45 ± 11.4%

Compound: C[C@]12CCC3c4ccc(O)cc4CCC3C1CC(=O)N(CCCCBr)C2=O (stereo partly drawn) [compound 235]
- inhibition at 10 µM [1]: 16.6 ± 1.46%
- inhibition at 10 µM [2]: 10.7 ± 0.78%

Compound: C[C@]12CCC3c4ccc(OS(N)(=O)=O)cc4CCC3C1CC(=O)N(Cc1ccccc1)C2=O (stereo partly drawn) [compound 236]
- IC50 [3]: 280 nM
- inhibition at 10 µM [1]: 20.4 ± 6.25%
- inhibition at 10 µM [2]: 5.84 ± 11.8%

Compound: C[C@]12CCC3c4ccc(OS(N)(=O)=O)cc4CCC3C1CC(=O)N(Cc1cccnc1)C2=O (stereo partly drawn) [compound 237]
- inhibition at 10 µM [1]: -2%

Compound: C=CCN1C(=O)CC2C3CCc4cc(O)ccc4C3CC[C@]2(C)C1=O (stereo partly drawn) [compound 274]
- inhibition at 10 µM [1]: 36.82 ± 0.36%
- inhibition at 10 µM [2]: -4.04 ± 0.36%

Compound: CCN1C(=O)CC2C3CCc4cc(O)ccc4C3CC[C@]2(C)C1=O (stereo partly drawn) [compound 275]
- inhibition at 10 µM [1]: 42.5 ± 3.02%
- inhibition at 10 µM [2]: 32.1 ± 1.06%

Compound: CCCCCCN1C(=O)CC2C3CCc4cc(O)ccc4C3CC[C@]2(C)C1=O (stereo partly drawn) [compound 276]
- inhibition at 10 µM [1]: 22.7 ± 2.2%
- inhibition at 10 µM [2]: 8.32 ± 7.5%

Compound: CCCCN1C(=O)CC2C3CCc4cc(O)ccc4C3CC[C@]2(C)C1=O (stereo partly drawn) [compound 277]
- inhibition at 10 µM [1]: 18.6 ± 0.89%
- inhibition at 10 µM [2]: 13.2 ± 9.74%

Compound: C[C@]12CCC3c4ccc(O)cc4CCC3C1CC(=O)N(CC1CC1)C2=O (stereo partly drawn) [compound 278]
- inhibition at 10 µM [1]: 24.2 ± 1.71%
- inhibition at 10 µM [2]: 8.31 ± 2.46%

Compound: CC(C)(C)c1ccc(CN2C(=O)CC3C4CCc5cc(O)ccc5C4CC[C@]3(C)C2=O)cc1 (stereo partly drawn) [compound 279]
- inhibition at 10 µM [1]: 16 ± 0.88%
- inhibition at 10 µM [2]: 3.87 ± 4.97%

Compound: C=CCN1C(=O)CC2C3CCc4cc(OS(N)(=O)=O)ccc4C3CC[C@]2(C)C1=O (stereo partly drawn) [compound 280]
- IC50 [3]: 75 nM

Compound: CCN1C(=O)CC2C3CCc4cc(OS(N)(=O)=O)ccc4C3CC[C@]2(C)C1=O (stereo partly drawn) [compound 281]
- IC50 [3]: 52 nM and 24 nM and 29 nM
- inhibition at 10 µM [1]: 24.7 ± 2.39%
- inhibition at 10 µM [2]: 20.4 ± 3.14%

Compound: CCCCCCN1C(=O)CC2C3CCc4cc(OS(N)(=O)=O)ccc4C3CC[C@]2(C)C1=O (stereo partly drawn) [compound 282]
- IC50 [3]: 288 nM

Compound: CCCCN1C(=O)CC2C3CCc4cc(OS(N)(=O)=O)ccc4C3CC[C@]2(C)C1=O (stereo partly drawn) [compound 283]
- IC50 [3]: 382 nM

Compound: CC(C)(C)c1ccc(CN2C(=O)CC3C4CCc5cc(OS(N)(=O)=O)ccc5C4CC[C@]3(C)C2=O)cc1 (stereo partly drawn) [compound 285]
- IC50 [3]: 23 nM
- inhibition at 10 µM [1]: 22.5 ± 3.72%
- inhibition at 10 µM [2]: 3.56 ± 4.89%

Compound: C[C@]12CCC3c4ccc(OS(N)(=O)=O)cc4CCC3C1CC(=O)N(CCCCBr)C2=O (stereo partly drawn) [compound 286]
- inhibition at 10 µM [1]: 26 ± 3.23%
- inhibition at 10 µM [2]: -2.98 ± 0.38%

Compound: COc1cc2c(cc1O)CCC1C2CC[C@]2(C)C(=O)NC(=O)CC12 (stereo partly drawn) [compound 325]
- inhibition at 10 µM [1]: 7.78 ± 2.45%
- inhibition at 10 µM [2]: -20.2 ± 14.8%

Compound: COc1cc2c(cc1OS(N)(=O)=O)CCC1C2CC[C@]2(C)C(=O)NC(=O)CC12 (stereo partly drawn) [compound 326]
- IC50 [3]: 309 nM
- inhibition at 10 µM [1]: 7.5 ± 12.4%
- inhibition at 10 µM [2]: 15 ± 1.22%
